Data published in patent publication US9023811B2, “Method for treating a cardiovascular disease, hypercholesterolemia or hypertension or improving serum cholesterol levels by administering broccoli with a high level of glusosinolates” (Plant Bioscience Limited, priority 2009, dated 2015).
Read-outs that look alike come from different tables or passages of the source.

Legend:
[1] = biological target: T1, bovine insulin (Bos taurus, UniProt P01317); assay: Incubation of peptides with isothiocyanates, LC-MS/MS; type: binding; details: PBS pH 7.4 at 37° C., 0.5 to 24 hours
T1 construct: m/z 325.2 corresponds to Phe-SF, the N-terminal amino acid of insulin B chain; m/z 235.0 corresponds to Gly-SF, the N-terminal amino acid of insulin A chain; purchased Sigma-Aldrich
Protocol: (§1) Incubations of SF or IB with bovine insulin (P01308, Sigma-Aldrich), recombinant human epidermal growth factor (EGF, P01133, R&D Systems, http://www.rndsystems.com/) and recombinant human transforming growth factor beta 1 (TGFβ1, P01137, R&D Systems) were performed in sodium phosphate-buffered saline solution (pH 7.4) or human blood plasma at 37° C. for 0.5-24 h. Plasma was pre-treated by ultrafiltration to remove high molecular weight proteins (Microcon Ultracel YM-30 filter, MWCO 30,000). Samples were either analyzed directly by LC-MS/MS or by LC-MS/MS analysis of tryptic digests of gel electrophoresis bands.
(§2) The LC system used was a Shimadzu series LOAD VP (Shimadzu). The column was an ACE 300 C18, 150×2.1 mm (5 μm particle size) used at 40° C. Mobile phase A was 0.1% formic acid in water, mobile phase B, 0.1% formic acid in acetonitrile and the flow rate was 0.25 ml/min. A linear gradient was used from 25% B to 35% B over 0 to 5 min, then a further gradient from 35% B to 99% B over 6 min followed by 99% B for 4 min. The column was re-equilibrated for a total of 3 min. The injection volume was between 5-20 μl. […] The peak-width was set on Q1 and Q3 at 1.0 Th (measured at half height) for all MS and MS/MS experiments. […]

[2] = biological target: T2, recombinant human epidermal growth factor (EGF) (Homo sapiens, UniProt P01133); assay: as above; type: binding; details: PBS pH 7.4 at 37° C., 0.5 to 24 hours
T2 construct: addition of SF to the N-terminal asparagines residue (m/z 309) of EGF; purchased R&D Systems
Protocol: as §1, §2

[3] = biological target: T3, recombinant human transforming growth factor beta 1 (TGFβ1) (Homo sapiens, UniProt P01137); assay: as above; type: binding; details: PBS pH 7.4 at 37° C., 0.5 to 24 hours
T3 construct: TGFβ1 was robustly identified in bands of 25 kDa corresponding to the active dimer; The N-terminal peptide […] was identified; purchased R&D Systems
Protocol: as §1, §2

[4] = tested on: TGFβ1/Smad mediated transcription
Protocol: Cells were seeded into complete growth medium in a six-well tissue culture dish for 24 h, after which the medium was replaced with low serum medium (0.5% FCS) containing one of three treatments: (1) TGFβ1 (to achieve a final concentration of 2 ng ml^−1) in PBS buffer, (2) TGFβ1^+10 mM DTT in PBS buffer (3) TGFβ1^+2 μM SF in PBS buffer. To simulate SF pharmacokinetics, all test samples were incubated at 37° C. for 30 minutes prior to dialysis, performed in PBS buffer for 4 hours using Slide-A-Lyzer Dialysis Cassettes MWCO 3.5K (PIERCE). Dialysis reduced SF concentration to 34 nM. As additional controls, cells were treated with PBS without TGFβ1 and PBS with SF (34 nM). The luciferase activity was determined 16 h following treatment using the Luciferase Reporter Gene assay (Roche Applied Science) in a Perkin Elmer Wallac Victor 2 1420 multilabel counter plate reader (Perkin Elmer). Briefly, cells were washed twice with PBS and lysed in cell lysis buffer supplied with the assay. Chemiluminescence was immediately quantified following the addition of luciferase assay substrate. Luciferase values were normalized to protein concentration quantified using the BCA assay (Sigma-Aldrich). The experiment was repeated four times, with three replicates of each treatment per experiment. Statistical analysis was performed using 1-way ANOVA with the statistical software, R [24].

[5] = tested on: EGF receptor phosphorylation in BPH cells; details: EGF pre-incubated with ITC, compared to EGF alone
[6] = tested on: pAKT in PC-3 cells
Protocol: BPH-1 or PC-3 cells were cultured in 10 cm cell culture dishes or 6-well culture plates until they reached 80% confluency and were lifter using TE buffer (10 mM Tris/HCl, 1 mM EDTA, pH8). After 24 h treatment with SF cells were washed three times with cold PBS and treated with RIPA buffer for 2 min on ice, followed by centrifugation at 13 000 g at 4° C. for 10 min and the supernatant collected for western blotting. Protein was separated on NuPage 10% polyacrylamide gels by electrophoresis and transferred to nitrocellulose membranes. Membranes were probed with primary antibodies obtained from Cell Signalling© at a dilution of 1:1000: Phospho-Akt (Ser^473) Rabbit mAb (#4060 L) and AKT (pan) Rabbit rnAb (#4685). GAPDH was used as a loading control for all blots. Proteins were visualised with SuperSignal West Chemiluminescence kit.

T2 sequence (P01133 971-1023 limits assumed): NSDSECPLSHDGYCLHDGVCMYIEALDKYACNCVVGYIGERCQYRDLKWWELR
T3 sequence (P01137 279-390 limits assumed): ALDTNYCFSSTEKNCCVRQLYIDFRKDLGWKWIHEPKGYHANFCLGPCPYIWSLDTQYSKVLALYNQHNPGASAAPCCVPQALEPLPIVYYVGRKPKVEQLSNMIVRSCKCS
T1 sequence (P01317 25-54 limits assumed): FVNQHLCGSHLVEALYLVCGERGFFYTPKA
T1 sequence (P01317 85-105 limits assumed): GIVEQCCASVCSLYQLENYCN

Smad-mediated transcription (luciferase activity) ([4]; TGFβ1 pre-incubated with SF (2 μM) for 30 minutes followed by dialysis, compared to TGFβ1 alone) | Smad-mediated transcription (luciferase activity) ([4]; residual SF (34 nM) alone, without TGFβ1) | Compound | conjugate of peptide and ITC (insulin) [1] | conjugate of peptide and ITC (EGF) [2] | conjugate of peptide and ITC (TGFβ1) [3] | amount of phosphorylated EGF receptor [5] | pAKT expression ([6]; PC-3 cells + FCS, 2 μM SF, one hour) | pAKT expression ([6]; PC-3 cells + FCS, 10 μM SF) | pAKT expression ([6]; PC-3 cells in culture medium without FCS) | pAKT expression ([6]; PC-3 cells, 0.5 μM SF (data not shown))
increase in Smad-mediated transcription | did not result in enhanced transcription | C[S+]([O-])CCCCN=C=S (stereo not shown) [SF, sulforaphane] | formation of a covalently bound conjugate | formation of a covalently bound conjugate | formation of a covalently bound conjugate | reduces the amount of phosphorylated receptor | suppresses pAKT | variable response | no further inhibition | suppression
– | – | C[S+]([O-])CCCN=C=S (stereo not shown) [IB, iberin] | formation of a covalently bound conjugate | formation of a covalently bound conjugate | formation of a covalently bound conjugate | – | – | – | – | –
